Activity calls are given as the source filed them. No cut-off for these calls is given here.
What was measured:
[1] = molecular target: T1, Proprotein convertase subtilisin/kexin type 9 (Homo sapiens, UniProt Q8NBP7); test: Inhibition of human PCSK9 using Alexa Fluor […] as substrate incubated for 2 hrs by FRET plus assay
[2] = molecular target: T1, Proprotein convertase subtilisin/kexin type 9; test: Inhibition of human PCSK9 using Alexa Fluor […] as substrate incubated for 2 hrs by FRET assay
Mast cell = test: Induction of rat mast cells degranulation activity at 100 uM incubated for 30 mins; format: functional, tissue-based
[3] = molecular target: T2, Solute carrier organic anion transporter family member 1B1 (Homo sapiens, UniProt Q9Y6L6); test: Inhibition of OATP1B1 (unknown origin) expressed in HEK293 cells assessed as reduction in OATP 1B1-mediated [3H]-pitavastatin uptake preincubated for 30 mins followed by [3H]-pitavastatin addition and measured after 2 mins by liquid scintillation analysis; format: cell-based
T2 sequence (Q9Y6L6 whole entry): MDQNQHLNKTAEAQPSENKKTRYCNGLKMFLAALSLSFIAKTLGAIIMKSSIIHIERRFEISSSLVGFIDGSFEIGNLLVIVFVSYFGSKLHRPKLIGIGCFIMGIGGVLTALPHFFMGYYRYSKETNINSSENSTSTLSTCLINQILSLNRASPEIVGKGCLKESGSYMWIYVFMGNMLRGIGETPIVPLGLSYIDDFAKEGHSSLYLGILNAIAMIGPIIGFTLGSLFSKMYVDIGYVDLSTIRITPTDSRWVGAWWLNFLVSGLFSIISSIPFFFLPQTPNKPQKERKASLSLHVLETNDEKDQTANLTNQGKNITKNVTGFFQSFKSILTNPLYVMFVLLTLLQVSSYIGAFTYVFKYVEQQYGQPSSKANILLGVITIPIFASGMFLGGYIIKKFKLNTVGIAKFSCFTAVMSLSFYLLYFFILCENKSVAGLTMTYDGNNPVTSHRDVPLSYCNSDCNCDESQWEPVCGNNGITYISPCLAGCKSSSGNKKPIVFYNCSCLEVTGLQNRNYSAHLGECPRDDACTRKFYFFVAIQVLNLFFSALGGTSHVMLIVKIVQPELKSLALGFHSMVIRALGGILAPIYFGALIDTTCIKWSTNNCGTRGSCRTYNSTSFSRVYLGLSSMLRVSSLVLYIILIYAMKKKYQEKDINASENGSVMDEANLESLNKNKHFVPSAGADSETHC

[4] = Clearance in Wistar Han rat at 1 mg/kg, iv measured upto 24 hrs by LC-MS/MS analysis; format: ADME, organism-based; settings: in vivo
[5] = AUC extrapolated in Wistar Han rat at 5 mg/kg, id measured upto 24 hrs by LC-MS/MS analysis; format: ADME, organism-based; settings: in vivo, other
[6] = Volume of distribution at steady state in Wistar Han rat at 1 mg/kg, iv measured upto 24 hrs by LC-MS/MS analysis; format: ADME, organism-based; settings: in vivo, read-out: Vdss
[7] = Half life in Wistar Han rat at 1 mg/kg, iv measured upto 24 hrs by LC-MS/MS analysis; format: ADME, organism-based; settings: in vivo
[8] = Cmax in Wistar Han rat at 5 mg/kg, id measured upto 24 hrs by LC-MS/MS analysis; format: ADME, organism-based; set-up: dose 5 mg/kg, time <=24; settings: in vivo
[9] = AUC(0 to infinity) in Wistar Han rat at 5 mg/kg, id measured upto 24 hrs by LC-MS/MS analysis; format: ADME, organism-based; set-up: dose 5 mg/kg, time <=24; settings: in vivo
[10] = Stability of the compound assessed as bovine pancreatic trypsin-mediated parent compound depletion by measuring parent compound remaining after 1 hr by LC-MS/MS analysis; format: ADME, Bos taurus; settings: cattle, read-out: Stability
[11] = molecular target: T1, Proprotein convertase subtilisin/kexin type 9; test: Inhibition of human PCSK9 using Alexa Fluor […] as substrate incubated for 2 hrs by FRET ultra assay
[12] = Unbound clearance in Wistar Han rat at 1 mg/kg, iv measured upto 24 hrs by LC-MS/MS analysis; format: ADME, organism-based; settings: in vivo
[13] = Tmax in Wistar Han rat at 5 mg/kg, id measured upto 24 hrs by LC-MS/MS analysis; format: ADME, organism-based; settings: in vivo
[14] = Bioavailability in Wistar Han rat at 5 mg/kg, id measured upto 24 hrs by LC-MS/MS analysis; format: ADME, organism-based; settings: in vivo
Sus scrofa [15] = species: Sus scrofa; test: Stability of the compound assessed as porcine pancreatic elastase-mediated parent compound depletion by measuring parent compound remaining after 1 hr by LC-MS/MS analysis
[16] = AUC(0 to infinity) in Wistar Han rat at 1 mg/kg, iv measured upto 24 hrs by LC-MS/MS analysis; format: ADME, organism-based; set-up: route intravenous, dose 1 mg/kg, time <=24; settings: in vivo
[17] = Protein binding in Wistar Han rat at 1 mg/kg, iv measured upto 24 hrs by LC-MS/MS analysis; format: ADME, organism-based; settings: in vivo, read-out: PB (converted)
Sus scrofa [18] = species: Sus scrofa; test: Stability of the compound assessed as porcine pepsin-mediated parent compound depletion by measuring parent compound remaining after 1 hr by LC-MS/MS analysis
Bos taurus = species: Bos taurus; test: Stability of the compound assessed as bovine pancreas alpha chymotrypsin-mediated parent compound depletion by measuring parent compound remaining after 1 hr by LC-MS/MS analysis

T1 sequence (Q8NBP7 31-152 limits assumed): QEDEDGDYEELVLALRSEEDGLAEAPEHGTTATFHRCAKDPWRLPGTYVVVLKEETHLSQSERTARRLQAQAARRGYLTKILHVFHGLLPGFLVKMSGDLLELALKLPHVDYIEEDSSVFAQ
T1 sequence (Q8NBP7 153-692 limits assumed): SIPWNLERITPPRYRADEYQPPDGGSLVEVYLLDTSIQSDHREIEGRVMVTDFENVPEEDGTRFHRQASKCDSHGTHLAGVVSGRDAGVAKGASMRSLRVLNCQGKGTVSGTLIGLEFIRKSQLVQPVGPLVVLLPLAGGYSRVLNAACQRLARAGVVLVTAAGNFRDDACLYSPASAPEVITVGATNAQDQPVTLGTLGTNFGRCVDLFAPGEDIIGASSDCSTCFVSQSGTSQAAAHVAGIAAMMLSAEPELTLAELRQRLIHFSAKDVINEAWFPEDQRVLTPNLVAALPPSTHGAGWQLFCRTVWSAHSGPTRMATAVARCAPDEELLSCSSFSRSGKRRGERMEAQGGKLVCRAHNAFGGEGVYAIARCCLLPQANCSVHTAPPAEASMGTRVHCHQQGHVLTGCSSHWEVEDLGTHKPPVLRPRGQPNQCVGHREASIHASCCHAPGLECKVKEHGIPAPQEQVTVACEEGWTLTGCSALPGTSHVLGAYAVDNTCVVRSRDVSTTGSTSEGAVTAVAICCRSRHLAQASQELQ

Row | SMILES | Ki [1] [nM] | Ki [2] [nM] | EC50 [3] [nM] | %AUCextra [5] [%] | Cmax [8] [nM] | AUC(0-inf) [9] [µM·h] | Ki [11] [nM] | Tmax [13] [h] | bioavailability [14] [%] | Activity (Mast cell) | further results
1 | COc1ccc(C[C@@H]2NC(=O)[C@H]([C@H](C)OC)NC(=O)[C@@H]3[C@@H]4CCN3C(=O)[C@H](Cc3c[nH]c5ccc(F)cc35)NC(=O)[C@H](Cc3cccc(c3)C/C=C/CO4)NC(=O)[C@H](C)NC(=O)[C@H](CN)NC(=O)CCSCc3cccc(c3)CSCCNC(=O)[C@]3(C)CCCN3C2=O)cc1 | 0.23 | 0.45 |  |  |  |  |  |  |  | inactive | 
2 | COc1ccc(C[C@@H]2NC(=O)[C@H]([C@@H](C)O)NC(=O)[C@@H]3[C@@H]4CCN3C(=O)[C@@H]3Cc5cn(c6ccc(F)cc56)Cc5cn(nn5)-c5cc(cc(c5)CSCCC(=O)N[C@@H](CN)C(=O)N[C@H](C)C(=O)N[C@@H](Cc5cccc(c5)C/C=C\CO4)C(=O)N3)CSCCNC(=O)[C@]3(C)CCCN3C2=O)cc1 | 0.037 |  |  |  |  |  |  |  |  | inactive | 
3 | COc1ccc(C[C@@H]2NC(=O)[C@H]([C@@H](C)OC)NC(=O)[C@@H]3[C@@H]4CCN3C(=O)[C@H](Cc3c[nH]c5ccc(F)cc35)NC(=O)[C@H](Cc3cccc(c3)C/C=C/CO4)NC(=O)[C@@H](CN)NC(=O)[C@H](C)NC(=O)CCSCc3cccc(c3)CSCCNC(=O)[C@]3(C)CCCN3C2=O)cc1 | 0.16 | 0.2 |  |  |  |  |  |  |  |  | 
4 | COc1ccc(C[C@@H]2NC(=O)[C@H]([C@@H](C)O)NC(=O)[C@@H]3[C@@H]4CCN3C(=O)[C@@H]3Cc5cn(c6ccc(F)cc56)Cc5cn(nn5)-c5cc(cc(c5)CSCCC(=O)N[C@@H](CNC(=O)CCOCCOCCN)C(=O)N[C@H](C)C(=O)N[C@@H](Cc5cccc(c5)C/C=C/CO4)C(=O)N3)CSCCNC(=O)[C@]3(C)CCCN3C2=O)cc1 |  | < 0.129 | 6000 | 19.6 | 53.3 | 0.0683 | 0.00813 | 0 | 1 | inactive | 

More lines, main results first:

Row | Ki [1] [nM] | Ki [2] [nM] | EC50 [3] [nM] | %AUCextra [5] [%] | Cmax [8] [nM] | AUC(0-inf) [9] [µM·h] | Ki [11] [nM] | Tmax [13] [h] | bioavailability [14] [%] | SMILES | Activity (Mast cell) | further results
5 | 0.00826 | < 0.129 | 600 | 23.6 | 12.4 | 0.0215 | 0.0094 | 0.25 | 0.45 | COc1ccc(C[C@@H]2NC(=O)[C@H]([C@@H](C)O)NC(=O)[C@@H]3[C@@H]4CCN3C(=O)[C@@H]3Cc5cn(c6ccc(F)cc56)Cc5cn(nn5)-c5cc(cc(c5)CSCCC(=O)N[C@@H](CN)C(=O)N[C@H](C)C(=O)N[C@@H](Cc5cccc(c5)C/C=C/CO4)C(=O)N3)CSCCNC(=O)[C@]3(C)CCCN3C2=O)cc1 | inactive | clearance [4]: 12.3 mL/min/kg; Vd [6]: 3 L/kg; half-life [7]: 5.9 h; remaining at 1 h [10]: 100%; CL free [12]: 85 mL/min/kg; Stability (Sus scrofa [15]): 96.5%; AUC(0-inf) [16]: 0.964 µM·h; fraction unbound at 24 h [17]: 0.144; Stability (Sus scrofa [18]): 100%; Stability (Bos taurus): 90%
6 | < 0.01 | < 0.129 |  |  |  |  | 0.0006 |  |  | COc1ccc(C[C@@H]2NC(=O)[C@H]([C@H](C)O)NC(=O)[C@@H]3[C@@H]4CCN3C(=O)[C@@H]3Cc5cn(c6ccc(F)cc56)Cc5cn(nn5)-c5cc(cc(c5)CSCCC(=O)N[C@@H](C)C(=O)N[C@@H](CNC(=O)CCOCCOCCNC(=O)CCCC[C@@H]5SC[C@H]6NC(=O)N[C@@H]56)C(=O)N[C@@H](Cc5cccc(c5)C/C=C/CO4)C(=O)N3)CSCCNC(=O)[C@]3(C)CCCN3C2=O)cc1 |  | 

Reference: ChEMBL document CHEMBL5034034 (J Med Chem, 2021)
